Molecular target: T1, recombinant human SAE enzyme (Homo sapiens, UniProt Q9UBT2)
T1 sequence (Q9UBT2 1-640): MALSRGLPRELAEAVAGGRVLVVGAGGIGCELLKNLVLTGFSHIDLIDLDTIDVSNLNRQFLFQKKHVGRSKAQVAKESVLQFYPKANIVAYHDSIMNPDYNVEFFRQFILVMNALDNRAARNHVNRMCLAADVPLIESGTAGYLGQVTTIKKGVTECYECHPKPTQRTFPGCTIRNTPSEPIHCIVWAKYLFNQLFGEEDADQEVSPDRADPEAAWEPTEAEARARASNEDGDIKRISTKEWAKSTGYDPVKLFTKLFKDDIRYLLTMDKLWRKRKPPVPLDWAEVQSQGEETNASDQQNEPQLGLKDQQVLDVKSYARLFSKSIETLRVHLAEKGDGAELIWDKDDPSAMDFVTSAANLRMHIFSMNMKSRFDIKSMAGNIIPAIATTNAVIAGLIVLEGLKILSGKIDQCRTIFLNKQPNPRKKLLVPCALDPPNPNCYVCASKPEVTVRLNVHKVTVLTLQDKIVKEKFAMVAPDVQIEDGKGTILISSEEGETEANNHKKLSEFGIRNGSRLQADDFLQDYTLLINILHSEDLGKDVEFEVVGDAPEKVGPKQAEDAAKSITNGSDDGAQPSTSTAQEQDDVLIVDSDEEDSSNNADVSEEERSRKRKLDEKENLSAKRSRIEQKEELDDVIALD
T1 sequence (Q9UBE0 1-346 partner): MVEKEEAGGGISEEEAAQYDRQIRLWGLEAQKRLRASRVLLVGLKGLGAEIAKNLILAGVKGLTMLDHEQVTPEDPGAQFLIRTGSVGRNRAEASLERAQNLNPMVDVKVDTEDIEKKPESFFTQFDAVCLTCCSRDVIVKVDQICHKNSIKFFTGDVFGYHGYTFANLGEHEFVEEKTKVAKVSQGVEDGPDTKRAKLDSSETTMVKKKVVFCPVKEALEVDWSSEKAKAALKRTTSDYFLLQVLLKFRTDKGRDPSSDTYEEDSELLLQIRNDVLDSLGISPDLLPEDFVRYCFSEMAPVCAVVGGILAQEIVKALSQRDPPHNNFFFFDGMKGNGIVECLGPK
Test: SAE HTRF Enzyme Assay
Format: biochemical
Details: for IC50: class symbols A-C; for inhibition at 0.111 µM: compound concentration 0.111 μM, read-out: Percent Inhibition
How it was run: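 Sumoylation of Ubc9-GST by recombinant human SAE was followed by time-resolved FRET between Eu-cryptate anti-Flag and allophycocyanin anti-GST antibodies. The enzyme step used low ATP (0.5 μM) at pH 7.5 and ran 105 min at 24° C.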

| Structure (SMILES) | IC50 [nM] | inhibition at 0.111 µM [%] |
| --- | --- | --- |
| NS(=O)(=O)OC[C@H]1C[C@@H](Nc2ccncc2C(=O)c2ccn(Cc3cccc(OC(F)(F)F)c3)c2)C[C@@H]1O [Compound I-83, [(1R,2S,4R)-2-Hydroxy-4-{[3-({1-[3-(trifluoromethoxy)benzyl]-1H-pyrrol-3-yl}carbonyl)pyridin-4-yl]amino}cyclopentyl]methyl sulfamate] | 10 to 100 | 88 |
| CC#Cc1cccc(Cn2ccc(C(=O)c3cncnc3N[C@@H]3C[C@H](COS(N)(=O)=O)[C@@H](O)C3)n2)c1 [Compound I-84, [(1R,2S,4R)-2-hydroxy-4-{[5-({1-[3-(prop-1-yn-1-yl)benzyl]-1H-pyrazol-3-yl}carbonyl)pyrimidin-4-yl]amino}cyclopentyl]methyl sulfamate] | < 10 | 95 |
| C#Cc1cccc(Cn2ccc(C(=O)c3cncnc3N[C@@H]3C[C@H](COS(N)(=O)=O)[C@@H](O)C3)n2)c1 [Compound I-85, {(1R,2S,4R)-4-[(5-{[1-(3-ethynylbenzyl)-1H-pyrazol-3-yl]carbonyl}pyrimidin-4-yl)amino]-2-hydroxycyclopentyl}methyl sulfamate] | < 10 | 98 |
| NS(=O)(=O)OC[C@H]1C[C@@H](Nc2ncncc2C(=O)c2ccn(Cc3ccc(C(F)F)o3)c2)[C@@H](F)[C@@H]1O [Compound I-87, [(1R,2R,3R,4R)-4-({5-[(1-{[5-(difluoromethyl)-2-furyl]methyl}-1H-pyrrol-3-yl)carbonyl]pyrimidin-4-yl}amino)-3-fluoro-2-hydroxycyclopentyl]methyl sulfamate] | < 10 | > 99 |
| NS(=O)(=O)OC[C@H]1C[C@@H](Nc2ncncc2C(=O)c2ccn(Cc3c(F)cc(F)cc3F)n2)[C@H](O)[C@@H]1O [Compound I-88, {(1R,2R,3S,4R)-2,3-dihydroxy-4-[(5-{[1-(2,4,6-trifluorobenzyl)-1H-pyrazol-3-yl]carbonyl}pyrimidin-4-yl)amino]cyclopentyl}methyl sulfamate] | < 10 | > 99 |
| NS(=O)(=O)OC[C@H]1C[C@@H](Nc2ncncc2C(=O)c2ccn(Cc3ccc(F)c(Cl)c3)n2)[C@H](O)[C@@H]1O [Compound I-89, {(1R,2R,3S,4R)-4-[(5-{[1-(3-chloro-4-fluorobenzyl)-1H-pyrazol-3-yl]carbonyl}pyrimidin-4-yl)amino]-2,3-dihydroxycyclopentyl}methyl sulfamate] | < 10 | 98 |
| NS(=O)(=O)OC[C@H]1C[C@@H](Nc2ncncc2C(=O)c2cc(CO)n(Cc3cccc(Br)c3)n2)C[C@@H]1O [Compound I-90, {(1R,2S,4R)-4-[(5-{[1-(3-Bromobenzyl)-5-(hydroxymethyl)-1H-pyrazol-3-yl]carbonyl}pyrimidin-4-yl)amino]-2-hydroxycyclopentyl}methyl sulfamate] | < 10 | 98 |
| NS(=O)(=O)OC[C@H]1C[C@@H](Nc2ncncc2C(=O)c2ccn(Cc3cc(F)ccc3F)n2)[C@H](O)[C@@H]1O [Compound I-91, {(1R,2R,3S,4R)-4-[(5-{[1-(2,5-difluorobenzyl)-1H-pyrazol-3-yl]carbonyl}pyrimidin-4-yl)amino]-2,3-dihydroxycyclopentyl}methyl sulfamate] | < 10 | 98 |
| NS(=O)(=O)OC[C@H]1C[C@@H](Nc2ncncc2C(=O)c2ccn(Cc3ccc(F)c(Br)c3)n2)[C@@H](F)[C@@H]1O [Compound I-92, {(1R,2R,3R,4R)-4-[(5-{[1-(3-bromo-4-fluorobenzyl)-1H-pyrazol-3-yl]carbonyl}pyrimidin-4-yl)amino]-3-fluoro-2-hydroxycyclopentyl}methyl sulfamate] | < 10 | 99 |
| NS(=O)(=O)OC[C@H]1C[C@@H](Nc2ncncc2C(=O)c2ccn(CC3CCCCC3)n2)C[C@@H]1O [Compound I-93, {(1R,2S,4R)-4-[(5-{[1-(cyclohexylmethyl)-1H-pyrazol-3-yl]carbonyl}pyrimidin-4-yl)amino]-2-hydroxycyclocarbonyl}methyl sulfamate] | < 10 | 90 |
| NS(=O)(=O)OC[C@H]1C[C@@H](Nc2ncncc2C(=O)c2cc(C(F)(F)F)n(Cc3ccccc3)c2)[C@@H](F)[C@@H]1O [Compound I-94, {(1R,2R,3R,4R)-4-[(5-{[1-Benzyl-5-(trifluoromethyl)-1H-pyrrol-3-yl]carbonyl}pyrimidin-4-yl)amino]-3-fluoro-2-hydroxycyclopentyl}methyl sulfamate] | < 10 | 97 |
| NS(=O)(=O)OC[C@H]1C[C@@H](Nc2ncncc2C(=O)c2ccn(Cc3cccc(Cl)n3)n2)C[C@@H]1O [Compound I-95, [(1R,2S,4R)-4-{[5-({1-[(6-chloropyridin-2-yl)methyl]-1H-pyrazol-3-yl}carbonyl)pyrimidin-4-yl]amino}-2-hydroxycyclopentyl]methyl sulfamate] | < 10 | 99 |
| NS(=O)(=O)OC[C@H]1C[C@@H](Nc2ncncc2C(=O)c2ccn(CC(=O)c3cccc(Br)c3)n2)[C@H](O)[C@@H]1O [Compound I-96, [(1R,2R,3S,4R)-4-{[5-({1-[2-(3-bromophenyl)-2-oxoethyl]-1H-pyrazol-3-yl}carbonyl)pyrimidin-4-yl]amino}-2,3-dihydroxycyclopentyl]methyl sulfamate] | < 10 | 98 |
| NS(=O)(=O)OC[C@H]1C[C@@H](Nc2ccncc2C(=O)c2ccn(Cc3ccc(F)c(Cl)c3)n2)C[C@@H]1O [Compound I-97, {(1R,2S,4R)-4-[(3-{[1-(3-Chloro-4-fluorobenzyl)-1H-pyrazol-3-yl]carbonyl}pyridin-4-yl)amino]-2-hydroxycyclopentyl}methyl sulfamate] | < 10 | 96 |
| NS(=O)(=O)OC[C@H]1C[C@@H](Nc2ncncc2C(=O)c2ccn(Cc3ccccc3OC(F)(F)F)n2)[C@H](O)[C@@H]1O [Compound I-98, [(1R,2R,3S,4R)-2,3-dihydroxy-4-{[5-({1-[2-(trifluoromethoxy)benzyl]-1H-pyrazol-3-yl}carbonyl)pyrimidin-4-yl]amino}cyclopentyl]methyl sulfamate] | < 10 | 96 |
| Cc1cc(C(=O)c2cncnc2N[C@@H]2C[C@H](COS(N)(=O)=O)[C@@H](O)C2)nn1Cc1cccc(Cl)n1 [Compound I-99, [(1R,2S,4R)-4-{[5-({1-[(6-chloropyridin-2-yl)methyl]-5-methyl-1H-pyrazol-3-yl}carbonyl)pyrimidin-4-yl]amino}-2-hydroxycyclopentyl]methyl sulfamate] | < 10 | > 99 |
| NS(=O)(=O)OC[C@H]1C[C@@H](Nc2ncncc2C(=O)c2ccn(Cc3ccc(Cl)c(OC(F)(F)F)c3)n2)[C@H](O)[C@@H]1O [Compound I-100, [(1R,2R,3S,4R)-4-{[5-({1-[4-chloro-3-(trifluoromethoxy)benzyl]-1H-pyrazol-3-yl}carbonyl)pyrimidin-4-yl]amino}-2,3-dihydroxycyclopentyl]methyl sulfamate] | < 10 | 98 |
| Cc1cc(C(=O)c2cncnc2N[C@@H]2C[C@H](COS(N)(=O)=O)[C@@H](O)C2)nn1Cc1ccc(Cl)o1 [Compound I-101, [(1R,2S,4R)-4-{[5-({1-[(5-chloro-2-furyl)methyl]-5-methyl-1H-pyrazol-3-yl}carbonyl)pyrimidin-4-yl]amino}-2-hydroxycyclopentyl]methyl sulfamate] | < 10 | 100 |
| NS(=O)(=O)OC[C@H]1C[C@@H](Nc2ncncc2C(=O)c2ccn(Cc3cccc(C(F)(F)F)c3)n2)[C@@H](F)[C@@H]1O [Compound I-102, [(1R,2R,3R,4R)-3-fluoro-2-hydroxy-4-{[5-({1-[3-(trifluoromethyl)benzyl]-1H-pyrazol-3-yl}carbonyl)pyrimidin-4-yl]amino}cyclopentyl]methyl sulfamate] | < 10 | 97 |
| NS(=O)(=O)OC[C@H]1C[C@@H](Nc2ncncc2C(=O)c2ccn(Cc3ccc4ccccc4c3)n2)[C@H](O)[C@@H]1O [Compound I-103, {(1R,2R,3S,4R)-2,3-dihydroxy-4-[(5-{[1-(2-naphthylmethyl)-1H-pyrazol-3-yl]carbonyl}pyrimidin-4-yl)amino]cyclopentyl}methyl sulfamate] | < 10 | 97 |
